Reference: US20240409549A1, “NEW CRYSTAL FORM AND USE OF NITROGENOUS TRICYCLIC COMPOUND” (SUNSHINE LAKE PHARMA CO., LTD., priority 2021, published 2024)

How the values were obtained:
[1] = Stability experiment: high-temperature test; format: physicochemical; conditions: for Purity (%): HPLC
Protocol: (1) High-temperature test: A batch of the test sample was taken into a flat weighing bottle, divided into ≤5 mm thick thin layer. The sample was placed at 60° C. for 30 days. The sample was then sampled at day 5, day 13 and day 30, and the change of the sample's color was observed. The purity of the sample was detected by HPLC.

[2] = Hygroscopicity experiment (dynamic vapor sorption); format: physicochemical
Protocol: The hygroscopicity of the present invention is measured using the DVS INT-Std dynamic moisture and gas adsorption analyzer of the Surface Measurement Systems Company in UK. The humidity test range was 0%-95%, the air flow was 200 mL/min, the temperature was 25° C., test point: take one test point per […] 5% humidity.
An appropriate amount of the test sample was taken and the hygroscopicity of the test sample was tested by dynamic moisture adsorption device. The description of the hygroscopic characteristics and the definition of the hygroscopic weight gain (Appendix 9103 of Chinese Pharmacopoeia 2020 Edition, Guidelines for Drug Hygroscopicity Tests, experimental conditions: 25° C.±1° C., 80%±2% relative humidity) are described in the table below: […]

[3] = Stability experiment: high-humidity test; format: physicochemical; conditions: for Purity (%): HPLC; for Purity (%) / Appearance: High-humidity 25° C., RH 90%±5%
Protocol: (2) High-humidity test: take a batch of the test sample into the flat weighing bottle, divided into ≤5 mm thick thin layer. The samples were sampled at 25° C. and RH for 90%±5% for 30 days. The samples were sampled at day 5, 13 and day 30, and the sample color was observed. The purity of the sample was determined by HPLC.

[4] = Pharmacokinetic experiment, oral capsules in Beagle dogs; format: in vivo; conditions: male Beagle dogs, 5 mg/kg
Protocol: The crystal form of the compound having Formula (I) was filled into capsules, which were used for oral administration.
Three male Beagle dogs weighing 8-12 kg were orally administered with capsules containing the test sample at a dose of 5 mg/kg, and blood samples were taken at time points of 0.25 h, 0.5 h, 1.0 h, 2.0 h, 4.0 h, 6.0 h, 8.0 h and 24 h. Standard curve was plotted based on concentrations of the samples in a suitable range, the concentration of the test sample in the plasma sample was measured and quantified by AB SCIEX API4000 LC-MS/MS at MRM mode. Pharmacokinetic parameters were calculated according to drug concentration -time curve using a noncompartmental method by WinNonLin 6.3 software.

[5] = Stability experiment: photostability (lighting) test; format: physicochemical; conditions: for Purity (%): HPLC; for Purity (%) / Appearance: Lighting, open light box with UV
Text: (3) Photostability Test: A batch of the test sample was taken into a flat weighing bottle, divided into ≤5 mm thick thin layer. The sample was placed in an opened light box (with UV) at the illuminance […], UV light≥0.7 w/m^2 for 30 days. The sample was then sampled at day 5, day 13 and day 30, and the change of the sample's color was observed. The purity of the sample was detected by HPLC.

[6] = High-temperature 60° C., day 13
[7] = High-temperature 60° C., day 30
[8] = day 0 (start, common to all conditions)

SMILES: O=C(O)c1ccc2c(c1)Oc1ccc(OCc3c(-c4c(Cl)cccc4Cl)noc3C3CC3)nc1C1(CC1)C2 [Crystal form I, 2-((5-cyclopropyl-3-(2,6-dichlorophenyl)isoxazol-4-yl)methoxy)-10H-spiro[benzo[6,7]oxepino[3,2-b]pyridine-11,1′-cyclopropane]-7-carboxylic acid]
- Purity (%) ([1]; High-temperature 60° C., day 5): 99.83%
- Purity (%) [1, 6]: 99.91%
- Purity (%) [1, 7]: 99.70%
- Purity (%) [1, 8]: 99.88%
- Appearance ([1]; High-temperature 60° C., day 5): White
- Appearance [1, 6]: White
- Appearance [1, 7]: White
- Appearance [1, 8]: White
- crystal structure stability ([1]; high temperature conditions): remains basically unchanged
- hygroscopic weight gain ([2]; after equilibrium at relative humidity of 80%, 25° C.): less than 0.2%
- hygroscopic characteristics ([2]; relative humidity of 80%, criterion of Chinese Pharmacopoeia 2020 Appendix 9103): no or almost no hygroscopicity
- Purity (%) ([3]; day 5): 99.81%
- Purity (%) ([3]; day 13): 99.70%
- Purity (%) ([3]; day 30): 99.82%
- Appearance ([3]; day 5): White
- Appearance ([3]; day 13): White
- Appearance ([3]; day 30): White
- crystal structure stability ([3]; high humidity conditions): remains basically unchanged
- AUC(0-t) ([4]; dog, plasma): 1020 ng·h/mL
- Cmax ([4]; dog, plasma): 389 ng/mL
- Tmax [4]: 1.67 h
- Purity (%) ([5]; day 5): 99.88%
- Purity (%) ([5]; day 13): 99.59%
- Purity (%) ([5]; day 30): 99.83%
- Appearance ([5]; day 5): White
- Appearance ([5]; day 13): White
- Appearance ([5]; day 30): White
- crystal structure stability ([5]; lighting conditions): remains basically unchanged
